Where two headings read alike, the source gives them in different places.
Tests used:
[1] = target: T1, ShHTL7 (Striga hermonthica Hyposensitive to Light) (Striga hermonthica, UniProt A0A0M3PNA2); experiment: competitive YLG (Yoshimulactone Green) hydrolysis assay with purified protein; type: biochemical
T1 sequence (A0A0M3PNA2 1-271): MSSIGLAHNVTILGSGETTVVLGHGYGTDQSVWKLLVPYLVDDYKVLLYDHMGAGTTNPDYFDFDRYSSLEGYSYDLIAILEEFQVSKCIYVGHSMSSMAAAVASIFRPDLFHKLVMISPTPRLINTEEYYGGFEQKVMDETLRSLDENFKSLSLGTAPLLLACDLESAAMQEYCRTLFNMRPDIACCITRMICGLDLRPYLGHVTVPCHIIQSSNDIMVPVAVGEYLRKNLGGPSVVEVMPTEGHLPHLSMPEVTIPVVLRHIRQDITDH

OsD14 = target: T2, OsD14 (Oryza sativa, UniProt Q10QA5); experiment: as above; type: biochemical
T2 construct: gene D14
T2 sequence (Q10QA5 1-318): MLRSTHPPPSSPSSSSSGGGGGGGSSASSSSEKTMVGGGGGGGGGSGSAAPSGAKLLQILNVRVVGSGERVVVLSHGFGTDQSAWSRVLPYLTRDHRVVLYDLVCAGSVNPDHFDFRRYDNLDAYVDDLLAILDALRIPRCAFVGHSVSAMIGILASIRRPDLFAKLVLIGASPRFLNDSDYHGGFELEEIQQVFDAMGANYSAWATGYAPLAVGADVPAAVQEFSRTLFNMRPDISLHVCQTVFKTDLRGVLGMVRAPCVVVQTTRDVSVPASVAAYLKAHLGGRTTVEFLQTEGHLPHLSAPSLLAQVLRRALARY

SMILES | IC50 [1] [µM] | IC50 (OsD14) [µM] | IC50 ([1]; read-out: IC50) [µM]
CC1=C[C@H](O/C=C2/C(=O)O[C@@H]3c4ccccc4C[C@H]23)OC1=O (racemic) [GR24, rac-GR24] | 0.98 ± 0.26 | 1.04 ± 0.09 | 
CC1=CC(O/C=C(\C(=O)N(C)C)c2ccccc2)OC1=O (stereo not drawn) [MP16, (Z)-N,N-Dimethyl-3-((4-methyl-5-oxo-2,5-dihydrofuran-2-yl)oxy)-2-phenylacrylamide] |  |  | 4.37 ± 0.21

— article PMC7179673, “A New Series of Carlactonoic Acid Based Strigolactone Analogs for Fundamental and Applied Research” (Frontiers in Plant Science, 2020)
